Consider 18 substances from US20130156845A1, “LIPID FORMULATED SINGLE STRANDED RNA” (ALNYLAM PHARMACEUTICALS, INC., priority 2010, published 2013).

The nature of data set [1]: Phosphate stability in mouse serum (Example 68).
Method: Single-stranded oligomeric compounds were tested for stability in mouse serum.
The test system of a further data set is PTEN. Nature of the data set: PTEN mRNA reduction in HeLa cells, dose response (Example 72). It is filed as cell-based, human. As to conditions: percent inhibition of PTEN mRNA, 0.167-50 nM. As to the method: In accordance with the present disclosure, oligomeric compounds were synthesized and tested for their ability to reduce PTEN expression over a range of doses. Human HeLa cells were treated with the following oligomeric compounds. A dose comparison was evaluated with dose concentrations of 0.167, 0.5, 1.5, 5, 15 and 50 nM using methods described herein. Expression levels of PTEN were determined using real-time PCR and normalized to RIBOGREEN™ using methods described herein. The percent inhibition of PTEN mRNA was determined and the resulting dose-response curves were used to determine the IC50. The IC50s are listed below.

The next data set relates to human PTEN. Kind of data set: PTEN expression in HeLa cells, ssRNAs vs siRNAs (Example 62). It is filed as cell-based. As to the method:
A series of 5′ and 2′ bis-substituted modified oligomeric compounds were prepared as single strand RNAs (ssRNAs). The antisense (AS) strands listed below were designed to target human PTEN, and each was also assayed as part of a duplex with the same sense strand (ISIS 341401, shown below) for their ability to reduce PTEN expression levels. HeLa cells were treated with the single stranded or double stranded oligomeric compounds created with the antisense compounds shown below using methods described herein. The IC50's were calculated using the linear regression equation generated by plotting the normalized mRNA levels to the log of the concentrations used.

The mark [2] stands for this setting: full compound with intact phosphorous moiety, first table.
Where [3] appears, read: antisense strand duplexed with sense strand ISIS 341401, PTEN mRNA, read-out: EC50 (nM) siRNA.

Like-named read-outs stand apart in the source and are kept apart here. Strand notation (5' to 3'): a small letter for the sugar, then the base; units joined by * are phosphorothioate-linked, units joined directly phosphodiester-linked; [ ] holds rarer units or linkages, { } end groups; capitals alone tell only the bases. [FEt-N] = nucleoside with 2'-OCH2CH2F (FEt) sugar (N: the base); [tcDNA-N] = tricyclo-DNA nucleoside (N: the base); [FEt] = thymidine with 2'-OCH2CH2F (FEt) sugar; e = 2'-O-(2-methoxyethyl) (MOE); m = 2'-O-methyl; r = 2'-OH (RNA); {P} = phosphate; f = 2'-fluoro

The term IC50 denotes the concentration that gives 50% inhibition. The low end stands for greater potency in that assay, the high end for weaker potency in that assay. A word on the EC50: it is the concentration needed to bring the measured effect to its halfway point.

The substance “5′-Po-ThUfoGfoUfoCfoUfoCfoUfoGfoGfoUfoCfoCfoUfsUfsAfsCfsUfsUfsAesAe (antisense TUGUCUCUGGUCCUUACUUAA; 5'-phosphate, 2'-F, MOE modifications, chemistry not fully specified) [ISIS 440141]” registered a T1/2 full length in data set [1] (four compounds tested separately, second table) of 0.3 h.

For “5′-Po-TjUfoGfoUfoCfoUfoCfoUfoGfoGfoUfoCfoCfoUfsUfsAfsCfsUfsUfsAesAe (antisense {P}-[tcDNA-T]fUfGfUfCfUfCfUfGfGfUfCfCfU*fU*fA*fC*fU*fU*eA*eA) [ISIS 418130]”, in data set [1] (setting [2]), the T1/2 full length came out at 5.3 h.

In the case of “5′-Po-UiUfoGfoUfoCfoUfoCfoUfoGfoGfoUfoCfoCfoUfsUfsAfsCfsUfsUfsAesAe (antisense UUGUCUCUGGUCCUUACUUAA; 5'-phosphate, N-methoxyamino BNA, 2'-F, MOE modifications, chemistry not fully specified) [ISIS 418129]”, in data set [1] (setting [2]), the T1/2 full length worked out at 5.4 h.

Substance “5′-Ps-UdUfoGfoUfoCfoUfoCfoUfoGfoGfoUfoCfoCfoUfsUfsAfsCfsUfsUf (antisense UUGUCUCUGGUCCUUACUU; 5'-thiophosphate, 2'-F modifications, chemistry not fully specified) [ISIS 430601]” came in with a T1/2 full length in data set [1] (setting [2]) of 3.7 h.

In the data set on PTEN, “P-TUfGfUfCfUfCfUfGfGfUfCfCfUfUfAfCfUfUfAeAe (antisense TUGUCUCUGGUCCUUACUUAA; 5'-phosphate, chemical modifications, chemistry not fully specified) [ISIS 418131, modified ssRNA targeting PTEN]” showed a concentration for half-maximal inhibition (IC50) of 3.4 nM.

Take “P-TdUfGfUfCfUfCfUfGfGfUfCfCfUfUfAfCfUfUfAeAe (antisense TUGUCUCUGGUCCUUACUUAA; chemistry not fully specified) [ISIS 435394, modified ssRNA targeting PTEN]”: half-maximal inhibition with PTEN (IC50) required 18.1 nM.

Turning to “P-TdUfGmUfCmUfCmUfGmGfUmCfCfUfUfAfCfUfUfAeAe (antisense TUGUCUCUGGUCCUUACUUAA; 5'-phosphate, chemical modifications, chemistry not fully specified) [ISIS 435399, modified ssRNA targeting PTEN]”, in the data set on PTEN, the IC50 came to 2 nM.

The substance “P-TeUfGfUfCfUfCfUfGfGfUfCfCfUfUfAfCfUfUfAeAe (antisense TUGUCUCUGGUCCUUACUUAA; sugars from the 5' end e1 f18 e2, 5' {P}, backbone not given here) [ISIS 418031, modified ssRNA targeting PTEN]” registered an IC50 in the data set on PTEN of 3.9 nM.

Turning to “P-TefUfGfUfCfUfCfUfGfGfUfCfCfUfUfAfCfUfUfAeAe (antisense TUGUCUCUGGUCCUUACUUAA; sugars from the 5' end [FEt]1 f18 e2, 5' {P}, backbone not given here; further chemistry not fully specified) [ISIS 418032, modified ssRNA targeting PTEN]”, the IC50 in the data set with PTEN was 2.9 nM. The IC50 values of the last two substances are within 1.5-fold of each other.

For the substance “P-TefUfGfUfCfUfCfUfGfGfUfCfCfUfUfAfCfUfUfAeAe (antisense {P}-[FEt-T]fUfGfUfCfUfCfUfGfGfUfCfCfU*fU*fA*fC*fU*fU*eA*eA) [ISIS 418033, modified ssRNA targeting PTEN]”, half-maximal inhibition in the data set with PTEN (IC50) required 11 nM.

In the case of “P-UeUfGfUfCfUfCfUfGfGfUfCfCfUfUfAfCfUfUfAeAe (antisense UUGUCUCUGGUCCUUACUUAA; sugars from the 5' end e1 f18 e2, 5' {P}, backbone and T or U not given here) [ISIS 418030, modified ssRNA targeting PTEN]”, the midpoint of inhibition in the data set with PTEN, the IC50, lay at 8.5 nM.

In the case of “P-UfUfGfUfCfUfCfUfGfGfUfCfCfUfUfAfCfUfUf (antisense {P}-fUfUfGfUfCfUfCfUfGfGfUfC*fC*fU*fU*fA*fC*fU*fU) [ISIS 386187, modified ssRNA targeting PTEN]”, the EC50 was 0.3 nM with human PTEN (setting [3]) and 15 nM in the data set with human PTEN (single stranded antisense compound, PTEN mRNA, read-out: EC50 (nM) ssRNA).

With “P-UmUfGmUfCmUfCmUfGmGfUmCfCmUfUmAfCmUfUmAeAe (antisense UUGUCUCUGGUCCUUACUUAA; sugars from the 5' end mfmfmfmfmfmfmfmfmfmee, 5' {P}, backbone not given here) [ISIS 414291, modified ssRNA targeting PTEN]”, in the data set on PTEN (listed as 414291), half-maximal inhibition (IC50) was put at 13 nM.

Take “P-UmUfGmUfCmUfCmUfGmGfUmCfCmUfUmAfCmUfUmAeAe (antisense UUGUCUCUGGUCCUUACUUAA; sugars from the 5' end mfmfmfmfmfmfmfmfmfmee, 5' {P}, backbone not given here) [ISIS 416598, modified ssRNA targeting PTEN]”: in the data set with PTEN (listed as 416598), the IC50 came out at 6.8 nM.

As to “Pz-^meUhUfGmUfCmUfCmUfGmGfUmCfCmUfUmAfCmUfUmAeAe (antisense UUGUCUCUGGUCCUUACUUAA; 5'-difluoromethylenephosphonate, 2'-F/2'-OMe alternating, MOE 3' end, first nucleoside modification undefined, further chemistry not given here) [ISIS 460646, modified ssRNA targeting PTEN, 5′-difluoromethylenephosphonate]”, the EC50 with human PTEN (setting [3]) came to 0.8 nM.

As to “Pz-^meUmUfGmUfCmUfCmUfGmGfUmCfCmUfUmAfCmUfUmAeAe (antisense UUGUCUCUGGUCCUUACUUAA; 5'-difluoromethylenephosphonate, 2'-F/2'-OMe alternating, MOE 3' end, first nucleoside modification undefined, further chemistry not given here) [ISIS 462606, modified ssRNA targeting PTEN, 5′-difluoromethylenephosphonate]”, the EC50 in the data set on human PTEN (antisense strand duplexed with sense strand ISIS 341401, PTEN mRNA, listed as 462606 (AS), read-out: EC50 (nM) siRNA) was determined as 0.4 nM.

“Pz-^meUmUfGmUfCmUfCmUfGmGfUmCfCmUfUmAfCmUfUmAeAe (antisense UUGUCUCUGGUCCUUACUUAA; 5'-difluoromethylenephosphonate, 2'-F/2'-OMe alternating, MOE 3' end, first nucleoside modification undefined, further chemistry not given here) [ISIS 462607, modified ssRNA targeting PTEN, 5′-difluoromethylenephosphonate]”: in the data set on human PTEN (antisense strand duplexed with sense strand ISIS 341401, PTEN mRNA, listed as 462607 (AS), read-out: EC50 (nM) siRNA), the EC50 stood at 1 nM.

On to “UUGUCUCUGGUCCUUACUU (rUrUrGrUrCrUrCrUrGrGrUrC*rC*rU*rU*rA*rC*rU*rU) [ISIS 359455, unmodified RNA antisense strand targeting PTEN]”, for which, in the data set with human PTEN (setting [3]), the EC50 was found to be 0.3 nM.
